# Where no end group is shown, it is not given here. The star is where a group is joined. Octanoyl = CCCCCCCC(=O)*
# How the values were obtained:
# [1] = test system: rats exposed to 10 Gy WBI; assay: Survival study after whole body irradiation (WBI); format: in vivo, rat; details: 10 Gy WBI rats, 30 day observation, vehicle 30%
# Description: Experimental animals. Male Sprague-Dawley (SD) rats (250-350 g) purchased from Charles River Laboratories (Wilmington, Mass., USA) were used. The rats were housed in a temperature-controlled room on a 12-h light/dark cycle and fed on a standard Purina rat chow diet. Animal experimentation was carried out in accordance with the Guide for the Care and Use of Laboratory Animals. This project was approved by the Institutional Animal Care and Use Committee (IACUC) of the Feinstein Institute for Medical Research.
# Animal model of whole body irradiation. […]
# Survival study. To assess the survival benefits of human ghrelin, animals were exposed to 10 Gy WBI and treated with human ghrelin (20 nmol/rat) subcutaneously once a day, with the first dose given either at 24 h or 48 h after WBI, for 6 days and observed for 30 days, and the survival recorded. […] Rats in the survival study were monitored twice daily and weighed once a day during the 30 day survival period. Net weight change was calculated as: % Weight Change ((weight at each day−weight at day 0)/weight at day 0)×100.
# Statistical analysis. All data are expressed as mean±SE and analyzed by one way analysis of variance (ANOVA) and compared using Student Newman Keul's test for multiple comparisons. […]
# [2] = Percent body weight change after WBI; format: in vivo, rat; details: 10 Gy WBI rats; treatment starting at 24 h; 30 day period
# Description: (§1) Animal model of whole body irradiation. Rats were exposed to whole body irradiation (WBI) of 10 Gray (Gy) using a Gammacell® 1000 Irradiator (Atomic Energy of Canada Ltd) [radiation source: Cesium-137 (^137Cs)] delivered at a dose rate of about 2.5 GY/min. The animals were sedated with intra-peritoneal pentobarbital (40 mg/kg BW) prior to irradiation. During radiation, the container rotated continuously in front of the radiation source for even exposure. The animals were then returned to their cages, and food and water were provided.
# Survival study. To assess the survival benefits of human ghrelin, animals were exposed to 10 Gy WBI and treated with human ghrelin (20 nmol/rat) subcutaneously once a day, with the first dose given either at 24 h or 48 h after WBI, for 6 days and observed for 30 days, and the survival recorded. The surviving animals beyond 30 days were then euthanized. Rats in the survival study were monitored twice daily and weighed once a day during the 30 day survival period. Net weight change was calculated as: % Weight Change ((weight at each day−weight at day 0)/weight at day 0)×100.
# serum endotoxin = assay: Serum endotoxin levels (LAL assay); format: in vivo; details: Day 7 after 10 Gy WBI; 20 nmol/rat for 6 days from 24 h
# Description: as §1
# Blood and Tissue Collection after WBI. Rats exposed to 10 Gy WBI were treated with 20 nmol/rat human ghrelin once a day for 6 days starting at 24 h after radiation. At the 7th day, rats were euthanized, and blood, liver and the small intestine were removed under sterile conditions. The blood was allowed to clot and following centrifugation, the serum was transferred into pyrogenic free sterile tubes, and stored at −80° C. until further analysis. […]
# Serum endotoxin levels. Bacterial endotoxin levels in the serum were determined by the endpoint Chromogenic Limulus Amebocyte Lysate (LAL) assay (QC-1000, Lonza, Walkervilles, Md. USA) and expressed in EU/ml. Samples were analyzed according to manufacturer's instruction. Endotoxin levels which are ≥0.1EU/ml can be measured using this assay.
# Liver 16S rRNA = assay: Bacterial translocation, liver 16S rRNA real time PCR; format: in vivo; details: Day 7 after 10 Gy WBI; 20 nmol/rat for 6 days from 24 h
# Description: as §1
# Blood and Tissue Collection after WBI. Rats exposed to 10 Gy WBI were treated with 20 nmol/rat human ghrelin once a day for 6 days starting at 24 h after radiation. […]
# DNA isolation and total bacteria quantification. […] Bacterial quantification was performed using 16S rRNA gene-targeted primer, forward: 5′-AAC GCG AAG AAC CTT AC-3′ (SEQ ID NO:2) and reverse: 5′-CGG TGT GTA CAA GAC CC-3′ (SEQ ID NO:3). […] The PCR conditions for total bacterial quantification were 95° C. for 1 min and 40 cycles of 95° C. for 20 sec and 60° C. for 1 min. […] Serially diluted genomic DNA of bacterial isolates was used as real time PCR control for bacterial quantification. A standard curve was generated from the bacterial DNA control and we consistently detected between 100 ng to 0.1 pg E. coli DNA. Bacterial counts were expressed as ng/mg liver tissue.
# CD73 = assay: Jejunal CD73 mRNA expression by real time PCR; format: in vivo, rat; details: jejunum, Day 7 after 10 Gy WBI; vehicle decreased by 62%
# Description: as §1
# Blood and Tissue Collection after WBI. Rats exposed to 10 Gy WBI were treated with 20 nmol/rat human ghrelin once a day for 6 days starting at 24 h after radiation. At the 7th day, rats were euthanized, and blood, liver and the small intestine were removed under sterile conditions. The blood was allowed to clot and following centrifugation, the serum was transferred into pyrogenic free sterile tubes, and stored at −80° C. until further analysis. Liver (0.25 g) was snap-frozen in liquid nitrogen and stored at −80° C. for subsequent bacterial translocation analysis. Small intestine, 10-15 cm of the ileum, was harvested for gut permeability studies, 10 cm of jejunum was collected for histopathology, and the remaining 10 cm jejunal segment each was collected for RNA and protein analyses.
# Total RNA extraction and real time PCR. […]
substance,measurement,setting,value
ghrelin (GSS(Octanoyl)FLSPEHQRVQQRKESKKPPAKLQPR; listed as Homo sapiens) [human ghrelin],survival rate,[1]; 20 nmol/rat s.c. once a day for 6 days starting at 24 h after WBI,63%
same,survival rate,"[1]; 20 nmol/rat s.c. once a day for 6 days, treatment initiated at 48 h after WBI",61%
same,percent body weight change,[2],consistent increase in the body weight
same,"serum endotoxin levels, decrease",serum endotoxin,42%
same,"liver 16S rRNA gene (bacterial counts), reduction from Vehicle",Liver 16S rRNA,61%
same,"CD73 mRNA expression, restored by",CD73,70%

# From patent US10265383B2, “Treatment of radiation injury using ghrelin” (priority 2014, dated 2019)
